Reference: patent publication US20210205329A1 (The University of North Carolina at Chapel Hill, priority 2018, published 2021)
“And” between values parts separate entries of the source, which are not always exact repeats. Equal entries are not always repeated.

Tests used:
TLR4/GABAAR α2 binding = molecular target: T1, TLR4/GABAAR α2 binding (Rattus norvegicus, UniProt Q9QX05); assay: TLR4/GABAAR α2 co-immunoprecipitation in P rat VTA; assay type: in vivo; settings: 15 mg/kg IP, P rats
T1 construct: from tissue; host or cells: ventral tegmental area (VTA) of alcohol-preferring (P) rats
T1 sequence (Q9QX05 26-835): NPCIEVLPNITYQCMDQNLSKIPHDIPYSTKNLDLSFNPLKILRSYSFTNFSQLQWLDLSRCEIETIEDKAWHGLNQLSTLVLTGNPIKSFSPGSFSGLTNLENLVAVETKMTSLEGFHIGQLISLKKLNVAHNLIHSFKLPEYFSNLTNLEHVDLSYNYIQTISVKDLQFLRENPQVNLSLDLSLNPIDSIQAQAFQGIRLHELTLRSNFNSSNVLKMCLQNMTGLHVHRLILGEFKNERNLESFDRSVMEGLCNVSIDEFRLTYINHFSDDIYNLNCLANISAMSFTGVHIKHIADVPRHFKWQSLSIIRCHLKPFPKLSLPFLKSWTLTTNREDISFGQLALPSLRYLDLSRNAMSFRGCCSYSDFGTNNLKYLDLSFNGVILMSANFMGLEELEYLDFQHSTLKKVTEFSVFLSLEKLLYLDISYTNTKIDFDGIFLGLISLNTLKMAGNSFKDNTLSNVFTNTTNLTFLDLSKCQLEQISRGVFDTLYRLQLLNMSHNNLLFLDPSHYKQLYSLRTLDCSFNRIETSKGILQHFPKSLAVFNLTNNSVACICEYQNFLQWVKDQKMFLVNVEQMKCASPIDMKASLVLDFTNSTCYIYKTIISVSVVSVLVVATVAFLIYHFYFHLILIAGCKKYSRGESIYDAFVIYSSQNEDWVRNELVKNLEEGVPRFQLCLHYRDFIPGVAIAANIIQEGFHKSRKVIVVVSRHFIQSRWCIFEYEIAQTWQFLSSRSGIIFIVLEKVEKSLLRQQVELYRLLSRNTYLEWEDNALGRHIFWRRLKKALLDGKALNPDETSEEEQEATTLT
Experimental: (§1) Co-Immunoprecipitation Assay RAW264.7 cells [treated with LPS (1 μg/ml), 3α,5α-THP (1 μM) or pregnenolone (1 μM)] were exposed to chemical protein crosslinking (Poulopoulos et al, 2009) at 24 hrs post-treatment. Briefly, the cells were incubated (20 min on ice) with 1 mM of the cleavable, membrane-permeable crosslinker DSP (Thermo Fisher Scientific, Cat. #PG82081). Rat VTA homogenates were incubated (20 min on ice) with 200 μM of DSP. The crosslinker was quenched in 1 M Tris buffer (pH 7.5) (to a final concentration of 10-20 mM), and the material was centrifuged at 21,000×g for 15 min. Proteins from the cells were extracted with Pierce IP Lysis Buffer (Thermo Fisher Scientific, Cat. #87787) supplemented with protease and phosphatase inhibitor cocktails (Sigma). Proteins from the VTA were extracted with CelLytic MT (dialyzable mild detergent, bicine and 150 mM NaCl; Sigma Aldrich, St. Louis, Mo., USA, Cat. #C3228) supplemented with protease and phosphatase inhibitor cocktails (Sigma) according to the manufacturers instructions. […]

TLR4/MyD88 binding = molecular target: T2, TLR4/MyD88 binding (Rattus norvegicus, UniProt Q9QX05); assay: TLR4/MyD88 co-immunoprecipitation in P rat VTA; assay type: in vivo; settings: 15 mg/kg IP, P rats
T2 construct: from tissue; host or cells: ventral tegmental area (VTA) of alcohol-preferring (P) rats
T2 sequence (Q9QX05 26-835): T1 sequence (Q9QX05 26-835)
Experimental: as §1

HMGB1 binding to TLR4 = molecular target: T3, HMGB1 binding to TLR4 (Rattus norvegicus, UniProt Q9QX05); assay: TLR4/HMGB1 co-immunoprecipitation in P rat VTA; assay type: in vivo; settings: 15 mg/kg IP, P rats
T3 construct: from tissue; host or cells: ventral tegmental area (VTA) of alcohol-preferring (P) rats
T3 sequence (Q9QX05 26-835): T1 sequence (Q9QX05 26-835)
Experimental: as §1

TLR2 signaling = assay: Pam3Cys-activated TLR2 signaling in RAW264.7 cells; assay type: cell-based, mouse
Experimental: Because multiple TLRs signal through MD-2, […] and MyD-88, the specificity of the neurosteroid 3α,5α-THP on TLR2, TLRS and TLR7 signal activation was examined in RAW264.7 ceils (FIG. 7). Pam3Cys (10 μg/ml) activated TLR2 signaling, evidenced by increases in pCREB, pERK1/2, TRAF6 and pATF-2, that were sustained for 24 hrs and inhibited by 3α,5α-THP (1 μM) (50-60% compared to vehicle).

CC(=O)[C@H]1CC[C@H]2[C@@H]3CC[C@H]4C[C@H](O)CC[C@]4(C)[C@H]3CC[C@]12C [3α,5α-THP, (3α,5α)3-hydroxypregnan-20-one]
inhibition of TLR4/GABAAR α2 binding (α2 co-precipitating with TLR4) in VTA (TLR4/GABAAR α2 binding): 62.7±9.2% and 82.7±9.2% and ~80% | inhibition of TLR4/MyD88 binding in VTA (TLR4/MyD88 binding): 43.5±5.4% and ~40% | HMGB1 binding to TLR4 in VTA (HMGB1 binding to TLR4): not altered | effect of Pam3Cys on pCREB, pERK1/2, pATF2 and TRAF6 (TLR2 signaling; 1 μM, Pam3Cys 10 μg/ml, harvested after 24 hrs): completely inhibited | inhibition at 1 µM (TLR2 signaling; Mus musculus, RAW264.7, Pam3Cys 10 μg/ml, 24 hrs, compared to vehicle, read-out: inhibition of Pam3Cys-induced increases in pCREB, pERK1/2, TRAF6 and pATF-2): 50 to 60%
